These results are taken from PubChem BioAssay (NCI).

Test systems include COLO 205 colon; HL-60(TB) leukemia; OVCAR-5 ovarian; HOP-92 NSCLC; NCI/ADR-RES ovarian; OVCAR-8 ovarian; MDA-MB-231 breast; NCI-H460 lung; SF-539 CNS; HCT-15 colon.
What all share (experiment): NCI-60 cell line screen, 48 h

“And” between values parts separate entries of the source, which are not always exact repeats. Equal values may be shown once.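 Where inhibition never reached the appropriate level, the endpoint shown equals the highest concentration tested. Otherwise, values were interpolated linearly from a five-concentration, 48-hour dose response in 96-well plates. GI50 = concentration required for 50% inhibition of growth. At the TGI there is no net growth.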 A value given as a limit tells only on which side of the number the result lay.

With `C=CC1=C(C)C(Cc2[nH]c(/C=c3\[nH]/c(=C/C4=NC(=O)C(C)/C4=C\C)c(C)c3CCC(=O)O)c(CCC(=O)OC)c2C)NC1=O` (centres undefined), the GI50 with COLO 205 colon was 20.2 µM; with HL-60(TB) leukemia, 39.8 µM; in the test on OVCAR-5 ovarian it was 37.6 µM; with HOP-92 NSCLC, 19.6 µM; in the test with NCI/ADR-RES ovarian it was 48.8 µM; in the test with OVCAR-8 ovarian, 34.9 µM. For the same molecule, the GI50 with MDA-MB-231 breast was 25.4 µM; in the test on NCI-H460 lung, 21.7 µM; in the test with SF-539 CNS, 25.1 µM; in the test with HCT-15 colon, 21.6 µM. The TGI in the test with COLO 205 colon is 36.3 µM; with HL-60(TB) leukemia, more than 100 µM; with OVCAR-5 ovarian, more than 100 µM; with HOP-92 NSCLC, 51.6 µM; in the test with NCI/ADR-RES ovarian, more than 100 µM; in the test on OVCAR-8 ovarian, more than 100 µM. For the same molecule, the TGI is 58.9 µM with MDA-MB-231 breast, more than 100 µM in the test on NCI-H460 lung, 54.4 µM in the test with SF-539 CNS and 53.9 µM in the test with HCT-15 colon.

With `CCCCCCCCCCC(CN(CC)CC)C(O)c1ccccc1` (centres undefined), the GI50 is 1.81 µM with COLO 205 colon; 2.13 µM with HL-60(TB) leukemia; 1.78 µM in the test with OVCAR-5 ovarian; 1.27 µM in the test with HOP-92 NSCLC; 1.9 µM with NCI/ADR-RES ovarian; 2.37 µM with OVCAR-8 ovarian. Moreover, the GI50 in the test with MDA-MB-231 breast is 1.72 µM; in the test with NCI-H460 lung, 1.88 µM; in the test with SF-539 CNS, 1.72 µM; in the test on HCT-15 colon it was 1.31 µM. The TGI in the test on COLO 205 colon came to 3.7 µM; in the test with HL-60(TB) leukemia, 5.04 µM; in the test with OVCAR-5 ovarian, 3.49 µM; in the test on HOP-92 NSCLC, 2.98 µM; with NCI/ADR-RES ovarian, 3.7 µM; with OVCAR-8 ovarian it was 5.83 µM. Moreover, the TGI with MDA-MB-231 breast came out at 3.43 µM; in the test on NCI-H460 lung, 3.5 µM; in the test on SF-539 CNS, 3.3 µM; in the test with HCT-15 colon, 2.77 µM.

In the case of `C=C1C(=O)O[C@H]2[C@H]1CC/C(COC(=O)NCc1cccc(OC)c1)=C\CC[C@@]1(C)O[C@@H]21`, the GI50 was 1.68 µM with COLO 205 colon; 1.21 µM in the test with HL-60(TB) leukemia; 2.17 µM in the test on OVCAR-5 ovarian; 1.32 µM in the test with HOP-92 NSCLC; 3.07 µM in the test on NCI/ADR-RES ovarian; 2.03 µM with OVCAR-8 ovarian. For the same molecule, the GI50 in the test with MDA-MB-231 breast was 1.95 µM; in the test on NCI-H460 lung, 3.3 µM; with SF-539 CNS, 1.55 µM; in the test on HCT-15 colon, 1.38 µM. For the same molecule, the TGI in the test on COLO 205 colon turned out to be 3.41 µM; in the test on HL-60(TB) leukemia, 4.51 µM; with OVCAR-5 ovarian, 5.04 µM; in the test with HOP-92 NSCLC, 2.96 µM; in the test on NCI/ADR-RES ovarian, 12.3 µM; in the test with OVCAR-8 ovarian, 5.63 µM. Besides, the TGI worked out at 4.22 µM with MDA-MB-231 breast, 13.4 µM in the test on NCI-H460 lung, 2.98 µM in the test on SF-539 CNS and 2.82 µM with HCT-15 colon.

Consider `c1ccc([P+](CCC[P+](c2ccccc2)(c2ccccc2)c2ccccc2)(c2ccccc2)c2ccccc2)cc1`, for which the GI50 with COLO 205 colon is 2.89 µM; in the test with HL-60(TB) leukemia, 2.27 µM; in the test on OVCAR-5 ovarian it was 34 µM; in the test with NCI/ADR-RES ovarian, more than 100 µM; in the test on OVCAR-8 ovarian, 10.5 µM; in the test with MDA-MB-231 breast, 23 µM. In addition, the GI50 in the test with NCI-H460 lung was 9.03 µM; in the test with SF-539 CNS, 15.1 µM; in the test with HCT-15 colon it was more than 100 µM. Also, the TGI with COLO 205 colon was 96.6 µM and 10.5 µM; in the test with HL-60(TB) leukemia it was 36.9 µM and 6.75 µM; in the test with OVCAR-5 ovarian, more than 100 µM; in the test with HOP-92 NSCLC, 82.2 µM; with NCI/ADR-RES ovarian, more than 100 µM; in the test with OVCAR-8 ovarian it was more than 100 µM. The TGI with MDA-MB-231 breast, in the test with NCI-H460 lung, in the test with SF-539 CNS and in the test on HCT-15 colon was more than 100 µM throughout.

For `COc1ccc(CC(C#N)c2cc(OC)c(OC)c(OC)c2)cc1` (centres undefined), the TGI was 0.133 µM with COLO 205 colon; 0.125 µM with HL-60(TB) leukemia; more than 96.9 µM in the test with OVCAR-5 ovarian; 16.7 µM with HOP-92 NSCLC; more than 100 µM in the test on NCI/ADR-RES ovarian; 13 µM in the test with OVCAR-8 ovarian. Besides, the TGI came to 3.29 µM with MDA-MB-231 breast, 21 µM in the test with NCI-H460 lung, 0.231 µM with SF-539 CNS and 11 µM with HCT-15 colon.

As for `C=C(CN(CCN1CCOCC1)CC(=C)c1ccc(C(=O)Nc2ccccc2N)cc1)c1ccc(C(=O)Nc2ccccc2N)cc1`, the GI50 in the test on COLO 205 colon is 8.21 µM; in the test on HL-60(TB) leukemia, 13 µM; with OVCAR-5 ovarian it was 7.62 µM; in the test with HOP-92 NSCLC it was 8.35 µM; in the test on NCI/ADR-RES ovarian it was 1.31 µM; in the test on OVCAR-8 ovarian, 1.79 µM. Further, the GI50 in the test with MDA-MB-231 breast was 3.05 µM; in the test with NCI-H460 lung, 8.72 µM; in the test with SF-539 CNS, 5.31 µM; with HCT-15 colon, 10.5 µM. Moreover, the TGI is 20.2 µM in the test on COLO 205 colon; more than 50 µM in the test on HL-60(TB) leukemia; 15.2 µM in the test on OVCAR-5 ovarian; 33.8 µM in the test on HOP-92 NSCLC; 4.92 µM with NCI/ADR-RES ovarian; 29.5 µM in the test on OVCAR-8 ovarian. Besides, the TGI in the test with MDA-MB-231 breast was 11.2 µM; in the test with NCI-H460 lung it was more than 50 µM; with SF-539 CNS it was 16.1 µM; in the test with HCT-15 colon, 43.9 µM.

For the molecule `c1cc(-c2cnn3nc(N4CCOCC4)ccc23)nc(NC2CC2)n1`, the GI50 in the test on COLO 205 colon was 8.06 µM; in the test with HL-60(TB) leukemia it was 7.5 µM; in the test on OVCAR-5 ovarian it was 6.64 µM; in the test on HOP-92 NSCLC, 5.64 µM; with NCI/ADR-RES ovarian, 8.25 µM; with OVCAR-8 ovarian, 7.9 µM. The GI50 in the test with MDA-MB-231 breast is 10.2 µM; in the test on NCI-H460 lung, 6.61 µM; in the test with SF-539 CNS it was 6.11 µM; in the test on HCT-15 colon, 8.66 µM. The TGI with COLO 205 colon is more than 23.5 µM; in the test with HL-60(TB) leukemia, 18.9 µM; with OVCAR-5 ovarian it was more than 22.4 µM; in the test with HOP-92 NSCLC, more than 25 µM; in the test on NCI/ADR-RES ovarian, more than 25 µM; in the test on OVCAR-8 ovarian it was more than 25 µM. For the same molecule, the TGI with MDA-MB-231 breast is more than 25 µM; in the test on NCI-H460 lung it was more than 25 µM; in the test on SF-539 CNS, 20.4 µM; with HCT-15 colon, more than 25 µM.

Take `NCCCn1c2c(c3ccc([N+](=O)[O-])cc3c1=O)C(=O)c1cc(Cl)ccc1-2`: the GI50 in the test with COLO 205 colon was less than 0.01 µM; with HL-60(TB) leukemia it was less than 0.01 µM; in the test on OVCAR-5 ovarian, 0.0265 µM; in the test on HOP-92 NSCLC, 0.0542 µM; in the test on NCI/ADR-RES ovarian, less than 0.01 µM; with OVCAR-8 ovarian it was less than 0.01 µM. Further, the GI50 is 0.218 µM with MDA-MB-231 breast, less than 0.01 µM with NCI-H460 lung, less than 0.01 µM in the test with SF-539 CNS and 0.0285 µM with HCT-15 colon. Moreover, the TGI with COLO 205 colon was 0.313 µM; in the test with HL-60(TB) leukemia it was less than 0.016 µM; in the test with OVCAR-5 ovarian, 0.193 µM; in the test on HOP-92 NSCLC, 0.544 µM; in the test on NCI/ADR-RES ovarian, 0.292 µM; in the test on OVCAR-8 ovarian it was 0.109 µM. Further, the TGI with MDA-MB-231 breast came to 0.64 µM; with NCI-H460 lung, 0.128 µM; in the test on SF-539 CNS, 0.0613 µM; with HCT-15 colon, 0.208 µM.

Turning to `CCN1CCN(c2nc(C)cc(N(CCCNc3ccnc4cc(Cl)ccc34)Cc3ccco3)n2)CC1`, the GI50 was 1.85 µM with COLO 205 colon; 2.11 µM in the test with HL-60(TB) leukemia; 7.9 µM in the test on OVCAR-5 ovarian; 2.26 µM in the test on HOP-92 NSCLC; 4.42 µM with NCI/ADR-RES ovarian; 4.08 µM in the test with OVCAR-8 ovarian. Moreover, the GI50 in the test on MDA-MB-231 breast was 3.18 µM; in the test on NCI-H460 lung it was 3.73 µM; with SF-539 CNS, 1.75 µM; with HCT-15 colon, 2.34 µM. Besides, the TGI with COLO 205 colon is 3.98 µM; in the test with HL-60(TB) leukemia, 5.08 µM; with OVCAR-5 ovarian, 28.4 µM; in the test with HOP-92 NSCLC, 6.72 µM; with NCI/ADR-RES ovarian, 19.7 µM; with OVCAR-8 ovarian, 19.5 µM. The TGI with MDA-MB-231 breast worked out at 12.4 µM; in the test on NCI-H460 lung, 12.9 µM; in the test with SF-539 CNS it was 3.46 µM; in the test on HCT-15 colon it was 11.6 µM.

Turning to `CCN1CCN(c2cc(C)nc(NCc3cc(Nc4ccnc5cc(Cl)ccc45)ccc3F)n2)CC1`, the GI50 in the test on COLO 205 colon was 0.897 µM; in the test on HL-60(TB) leukemia, 2.18 µM; in the test on OVCAR-5 ovarian, 1.67 µM; with HOP-92 NSCLC it was 2.58 µM; in the test on NCI/ADR-RES ovarian it was 5.03 µM; in the test with OVCAR-8 ovarian, 4.11 µM. For the same molecule, the GI50 was 2.02 µM in the test with MDA-MB-231 breast, 2.83 µM in the test on NCI-H460 lung, 1.72 µM in the test on SF-539 CNS and 2.19 µM in the test with HCT-15 colon. Further, the TGI in the test with COLO 205 colon is 2.81 µM; in the test on HL-60(TB) leukemia, 22.1 µM; in the test on OVCAR-5 ovarian it was 17.7 µM; with HOP-92 NSCLC, 19.4 µM; in the test with NCI/ADR-RES ovarian, more than 100 µM; with OVCAR-8 ovarian, more than 100 µM. In addition, the TGI in the test with MDA-MB-231 breast was 5.99 µM; with NCI-H460 lung, 12.1 µM; in the test with SF-539 CNS it was 3.42 µM; in the test with HCT-15 colon it was 11.7 µM.

With `O=C(O)CCc1nc(-c2ccccc2)c(-c2ccccc2)o1`, the TGI with COLO 205 colon, in the test with HL-60(TB) leukemia, in the test with OVCAR-5 ovarian, in the test on HOP-92 NSCLC, in the test with NCI/ADR-RES ovarian and with OVCAR-8 ovarian was more than 100 µM each time. Besides, the TGI in the test on MDA-MB-231 breast, in the test with NCI-H460 lung, in the test on SF-539 CNS and in the test with HCT-15 colon was more than 100 µM throughout.
